Biological target: T1, human PAD4 (Homo sapiens, UniProt Q9UM07)
T1 construct: human PAD4 (NM_012387), A2P663, was PCR amplified; His-SUMO (N, cleaved yes); made in house; host or cells: E. coli BL21(DE3)
Assay: In vitro PAD4 BAEE biochemical assay
Conditions: human PAD4, BAEE substrate; 5 nM PAD4, 2 mM calcium chloride, 3 mM BAEE; geometric mean of multiple experiments
Summary of the method: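 Ammonia release from BAEE deimination monitored by o-phthalaldehyde amine coupling (1 h, 25 °C) after EDTA stop. Final conditions: 5 nM tag-free recombinant human PAD4 (E. coli), 2 mM CaCl2, 3 mM BAEE, pH 7.6 MOPS with DTT; 30 min compound preincubation, then 2 h reaction at 25 °C.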

T1 sequence (Q9UM07 2-663): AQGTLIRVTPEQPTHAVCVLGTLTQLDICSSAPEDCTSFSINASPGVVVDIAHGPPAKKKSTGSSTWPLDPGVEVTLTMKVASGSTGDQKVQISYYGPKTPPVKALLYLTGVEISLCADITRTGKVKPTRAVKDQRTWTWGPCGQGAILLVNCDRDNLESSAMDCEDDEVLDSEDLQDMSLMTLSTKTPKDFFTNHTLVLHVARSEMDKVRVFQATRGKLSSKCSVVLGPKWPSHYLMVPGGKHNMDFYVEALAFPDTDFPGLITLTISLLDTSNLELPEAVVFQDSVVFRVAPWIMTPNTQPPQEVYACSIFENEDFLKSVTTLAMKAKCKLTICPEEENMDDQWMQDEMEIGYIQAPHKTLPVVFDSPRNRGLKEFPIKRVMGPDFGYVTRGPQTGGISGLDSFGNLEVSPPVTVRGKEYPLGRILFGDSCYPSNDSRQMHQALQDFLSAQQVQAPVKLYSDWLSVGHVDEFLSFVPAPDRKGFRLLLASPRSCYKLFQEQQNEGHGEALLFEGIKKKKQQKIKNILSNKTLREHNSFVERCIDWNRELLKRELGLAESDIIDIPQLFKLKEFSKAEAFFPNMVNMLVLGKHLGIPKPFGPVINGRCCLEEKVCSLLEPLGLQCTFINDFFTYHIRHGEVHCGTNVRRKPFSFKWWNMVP

Row | IC50 [nM] | Compound
1 | 305 | COc1cc(C(=O)N2CCC[C@@H](N)C2)cc2nc(-c3cc4ccc([C@@H](C)CC(=O)N(C)C)nc4n3CC3CC3)c(C)n12 [Example 535, (3~{S})-3-[2-[7-[(3~{R})-3-aminopiperidine-1-carbonyl]-5-methoxy-3-methylimidazo[1,2-a]pyridin-2-yl]-1-(cyclopropylmethyl)pyrrolo [2,3-b]pyridin-6-yl]-~{N},~{N}-dimethylbutanamide]
2 | 22.2 | COc1cc(C(=O)N2[C@H]3CC[C@@H]2[C@H](N)C3)cc2nc(-c3cc4ccc([C@@H](C)NC(=O)c5ccc(C)nc5)nc4n3CC3CC3)c(C)n12 [Example 49, ~{N}-[(1~{R})-1-[2-[7-[(1~{R},2~{R},4~{S})-2-amino-7-azabicyclo[2.2.1]heptane-7-carbonyl]-5-methoxy-3-methylimidazo [1,2-a]pyridin-2-yl]-1-(cyclopropylmethyl)pyrrolo[2,3-b]pyridin-6-yl]ethyl]-6-methylpyridine-3-carboxamide]
3 | 341 | COc1cc(C(=O)N2C[C@H]3C[C@H](O)[C@@H]2[C@@H]3N)cc2nc(-c3cc4ccc(N(C(F)F)S(C)(=O)=O)nc4n3CC3CC3)c(C)n12 [Example 378, N-[2-[7-[(1S,4R,6S,7R)-7-amino-6-hydroxy-2-azabicyclo[2.2.1]heptane-2-carbonyl]-5-methoxy-3-methyl-imidazo [1,2-a]pyridin-2-yl]-1-(cyclopropylmethyl)pyrrolo [2,3-b]pyridin-6-yl]-N-(difluoromethyl) methanesulfonamide]
4 | 44.2 | COc1cc(C(=O)N2[C@H]3CC[C@@H]2[C@H](N)C3)cc2nc(-c3cc4ccc(N5CCCCS5(=O)=O)nc4n3CC3CC3)c(C)n12 [Example 474, [(1~{R},2~{R},4~{S})-2-amino-7-azabicyclo [2.2.1]heptan-7-yl]-[2-[1-(cyclopropylmethyl)-6-(1,1-dioxothiazinan-2-yl)pyrrolo [2,3-b]pyridin-2-yl]-5-methoxy-3-methylimidazo [1,2-a]pyridin-7-yl]methanone]
5 | 79.1 | COc1cc(C(=O)N2[C@H]3CC[C@@H]2[C@H](N)C3)cc2nc(-c3cc4ccc([C@@H](C)NC(=O)N(C)Cc5cccc(=O)[nH]5)nc4n3CC3CC3)c(C)n12 [Example 220, 3-[(1~{R})-1-[2-[7-[(1~{R},2~{R},4~{S})-2-amino-7-azabicyclo[2.2.1]heptane-7-carbonyl]-5-methoxy-3-methylimidazo [1,2-a]pyridin-2-yl]-1-(cyclopropylmethyl)pyrrolo [2,3-b]pyridin-6-yl]ethyl]-1-methyl-1-[(6-oxo-1~{H}-pyridin-2-yl)methyl]urea]
6 | 73.8 | COc1cc(C(=O)N2[C@H]3CC[C@@H]2[C@H](N)C3)cc2nc(-c3cc4ccc([C@@H](C)NC(=O)C56CC(C#N)(C5)C6)nc4n3CC3CC3)c(C)n12 [Example 158, ~{N}-[(1~{R})-1-[2-[7-[(1~{R},2~{R},4~{S})-2-amino-7-azabicyclo[2.2.1]heptane-7-carbonyl]-5-methoxy-3-methylimidazo [1,2-a]pyridin-2-yl]-1-(cyclopropylmethyl)pyrrolo [2,3-b]pyridin-6-yl]ethyl]-3-cyanobicyclo[1.1.1]pentane-1-carboxamide]
7 | 68.5 | COc1cc(C(=O)N2[C@H]3CC[C@@H]2[C@H](N)C3)cc2nc(-c3cc4ccc([C@@H](C)NC(=O)N5CC(F)(F)C5)nc4n3CC3CC3)c(C)n12 [Example 232, N—((R)-1-(2-(7-((1R,2R,4S)-2-amino-7-azabicyclo[2.2.1]heptane-7-carbonyl)-5-methoxy-3-methylimidazo[1,2-a]pyridin-2-yl)-1-(cyclopropylmethyl)-1H-pyrrolo[2,3-b]pyridin-6-yl)ethyl)-3,3-difluoroazetidine-1-carboxamide]

Source: patent publication US12240862B2, “Inhibitors of peptidylarginine deiminases” (Gilead Sciences, Inc., priority 2020, dated 2025)
